Patent publication US20240210412A1, “SULFONYL-TRIAZOLE COMPOUNDS USEFUL AS LIGANDS AND INHIBITORS OF PROSTAGLANDIN REDUCTASE 2” (University of Virginia Patent Foundation, priority 2021, published 2024)

What was measured:
Assay in all cases: SILAC LC-MS ABPP
Q96AE4 = target: T1, Q96AE4 (Homo sapiens, UniProt Q96AE4); assay type: cell-based; conditions: 25 μM 2 h, live DM93 cells
T1 construct: endogenous in cells; host or cells: DM93 cells (SILAC), treated live; soluble proteome analysed
Protocol: (§1) Cells were grown to 90-95% confluence before being washed once with warm, sterile DPBS (1×, 5 mL), followed by addition of 10 mL of serum-free media (supplemented with 1% L-glutamine) containing either DMSO or SuTEx fragment (in DMSO) was added. Light cells were treated with DMSO vehicle while the heavy cells were treated with DMSO or SuTEx fragment (in DMSO) and incubated for 2 hrs. After 2 hrs, the cells were treated with SuTEx alkyne probe (HHS475, 10 μL of 1000× DMSO stock) and incubated for an additional 2 hrs. The media was aspirated and cells washed with cold PBS (5 mL) and harvested. Cells were spun at 500×g for 5 min at 4° C. followed by removal of supernatant. Pellets were resuspended in 1 mL of cold DPBS and spun at 1,400×g for 3 min at 4° C. followed by removal of supernatant. The cells were lysed in PBS by sonication and fractionated (100,000×g, 45 min, 4° C.).The light and heavy soluble fractions were diluted to 2.3 mg/mL in PBS and 432 μL were used for analysis (1 mg total protein). The probe-modified proteomes were conjugated to desthiobiotin-PEG3-azide (10 μl of 10 mM stock in DMSO; 200 μM final concentration) using TCEP (10 μl of fresh 50 mM stock in water, 1 mM final concentration), TBTA ligand (33 μl of a 1.7 mM 4:1 t-butanol/DMSO stock, 100 μM final concentration) and CuSO4 (10 μl of 50 mM stock, 1 mM final concentration). Samples were vortexed to mix and incubated for 1 hr at room temperature. The heavy and light proteomes were mixed 1:1 and the subsequent steps, including LC-MS/MS data analysis, were performed as previously described^[8a].
(§2) Coupling cell-based screens with chemical proteomics can facilitate the identification of target protein and binding sites that engage and are irreversibly modified by covalent ligands^[12]. In these assays, covalent ligands block SuTEx activity-based probe (ABP) labeling at protein sites, and the competition of probe labeling can be used to quantify potency and selectivity across the proteome^[10a]. To facilitate quantitative chemical proteomics, DM93 melanoma cells were cultured using stable isotopic labeling by amino acids in cell culture (SILAC)^[13]. Cells cultured in “light” media were treated with dimethyl sulfoxide (DMSO) vehicle while cells cultured in “heavy” media were treated with SuTEx ligand (25 μM, 2 hours, 37° C.). Next, cells were treated with HHS-475 probe (100 μM, 2 hours, 37° C.) followed by lysis and processing of proteomes for analysis. Probe-modified proteins from the soluble fraction were conjugated to a desthiobiotin-azide tag by copper-catalyzed azide-alkyne cycloaddition (CuAAC)^[14] followed by mixing of the light and heavy proteomes. The combined proteomes were digested with trypsin protease to produce probe-modified peptides, followed by enrichment and purification by avidin affinity chromatography. Probe-modified peptides were resolved, identified, and quantified by high-resolution liquid chromatography-tandem mass spectrometry (LC-MS/MS). Resultant data were analyzed as previously described^[8a, 10a]. Table 2, below, lists sites of modification targeted by sulfonyl-triazole compounds HHS-0101, HHS-0201, HHS-0301, HHS-0401, and HHS-0701. The format of the table is as follows: protein Uniprot accession number (see uniprot.org); tyrosine site (amino acid position) modified; treatment (sulfonyl-triazole compound identification number, followed by Y (where if multiple compounds modify the same site, the compounds are separated by vertical lines).

P11216 = target: T2, P11216 (Homo sapiens, UniProt P11216); assay type: cell-based; conditions: 25 μM 2 h, live DM93 cells
T2 construct: endogenous in cells; host or cells: DM93 cells (SILAC)
T2 sequence (P11216 whole entry): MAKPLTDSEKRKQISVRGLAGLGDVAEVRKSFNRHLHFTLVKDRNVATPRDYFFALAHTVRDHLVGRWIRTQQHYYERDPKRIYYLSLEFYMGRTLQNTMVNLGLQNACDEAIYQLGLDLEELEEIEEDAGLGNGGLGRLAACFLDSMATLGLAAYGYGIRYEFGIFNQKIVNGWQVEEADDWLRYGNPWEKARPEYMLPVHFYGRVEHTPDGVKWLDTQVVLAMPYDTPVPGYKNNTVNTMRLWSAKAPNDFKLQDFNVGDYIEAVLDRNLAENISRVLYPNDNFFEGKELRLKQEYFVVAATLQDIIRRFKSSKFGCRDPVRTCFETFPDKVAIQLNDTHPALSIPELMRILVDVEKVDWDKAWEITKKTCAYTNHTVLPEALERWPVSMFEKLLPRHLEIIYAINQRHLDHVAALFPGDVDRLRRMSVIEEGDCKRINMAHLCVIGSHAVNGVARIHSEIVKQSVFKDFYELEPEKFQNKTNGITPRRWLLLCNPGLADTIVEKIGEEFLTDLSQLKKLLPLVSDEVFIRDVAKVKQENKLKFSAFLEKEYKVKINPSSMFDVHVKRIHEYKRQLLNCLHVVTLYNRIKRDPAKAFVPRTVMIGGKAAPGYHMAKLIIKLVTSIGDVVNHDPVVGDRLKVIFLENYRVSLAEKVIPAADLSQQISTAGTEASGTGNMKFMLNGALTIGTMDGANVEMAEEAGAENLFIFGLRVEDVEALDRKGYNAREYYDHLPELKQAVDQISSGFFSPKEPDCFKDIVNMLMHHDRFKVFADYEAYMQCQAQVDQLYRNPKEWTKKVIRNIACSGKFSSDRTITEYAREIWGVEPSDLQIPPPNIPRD
Protocol: as §1, §2

O75150 = target: T3, O75150 (Homo sapiens, UniProt O75150); assay type: cell-based; conditions: 25 μM 2 h, live DM93 cells
T3 construct: endogenous in cells; host or cells: DM93
T3 sequence (O75150 whole entry): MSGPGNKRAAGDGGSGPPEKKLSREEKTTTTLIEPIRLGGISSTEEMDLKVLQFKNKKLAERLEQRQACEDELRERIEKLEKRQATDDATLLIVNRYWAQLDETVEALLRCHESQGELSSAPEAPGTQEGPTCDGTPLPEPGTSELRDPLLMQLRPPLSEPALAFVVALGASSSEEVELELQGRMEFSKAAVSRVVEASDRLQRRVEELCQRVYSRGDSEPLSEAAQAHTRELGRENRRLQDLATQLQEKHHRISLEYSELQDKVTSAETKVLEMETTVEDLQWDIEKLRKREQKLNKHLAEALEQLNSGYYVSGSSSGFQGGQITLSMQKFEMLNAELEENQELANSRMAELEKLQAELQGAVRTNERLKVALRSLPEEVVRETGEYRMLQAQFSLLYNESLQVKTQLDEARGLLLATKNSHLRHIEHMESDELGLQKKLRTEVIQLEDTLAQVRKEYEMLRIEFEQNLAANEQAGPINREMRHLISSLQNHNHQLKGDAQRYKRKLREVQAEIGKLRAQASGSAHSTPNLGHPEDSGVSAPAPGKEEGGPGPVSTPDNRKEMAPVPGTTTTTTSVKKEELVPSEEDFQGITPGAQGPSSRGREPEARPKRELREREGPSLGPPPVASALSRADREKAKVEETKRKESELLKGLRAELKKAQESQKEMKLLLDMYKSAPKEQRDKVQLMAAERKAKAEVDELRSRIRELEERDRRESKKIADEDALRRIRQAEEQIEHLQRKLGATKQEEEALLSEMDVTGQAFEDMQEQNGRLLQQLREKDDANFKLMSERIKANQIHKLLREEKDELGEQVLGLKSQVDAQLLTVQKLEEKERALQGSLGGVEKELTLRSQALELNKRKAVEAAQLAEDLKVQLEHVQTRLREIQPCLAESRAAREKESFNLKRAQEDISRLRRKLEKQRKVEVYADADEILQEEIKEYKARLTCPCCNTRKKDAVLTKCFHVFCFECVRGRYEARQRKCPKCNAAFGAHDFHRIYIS
Protocol: as §1, §2

Q93052 = target: T4, Q93052 (Homo sapiens, UniProt Q93052); assay type: cell-based; conditions: 25 μM 2 h, live DM93 cells
T4 construct: endogenous in cells; host or cells: DM93 cells (SILAC), live-cell treatment
T4 sequence (Q93052 1-612): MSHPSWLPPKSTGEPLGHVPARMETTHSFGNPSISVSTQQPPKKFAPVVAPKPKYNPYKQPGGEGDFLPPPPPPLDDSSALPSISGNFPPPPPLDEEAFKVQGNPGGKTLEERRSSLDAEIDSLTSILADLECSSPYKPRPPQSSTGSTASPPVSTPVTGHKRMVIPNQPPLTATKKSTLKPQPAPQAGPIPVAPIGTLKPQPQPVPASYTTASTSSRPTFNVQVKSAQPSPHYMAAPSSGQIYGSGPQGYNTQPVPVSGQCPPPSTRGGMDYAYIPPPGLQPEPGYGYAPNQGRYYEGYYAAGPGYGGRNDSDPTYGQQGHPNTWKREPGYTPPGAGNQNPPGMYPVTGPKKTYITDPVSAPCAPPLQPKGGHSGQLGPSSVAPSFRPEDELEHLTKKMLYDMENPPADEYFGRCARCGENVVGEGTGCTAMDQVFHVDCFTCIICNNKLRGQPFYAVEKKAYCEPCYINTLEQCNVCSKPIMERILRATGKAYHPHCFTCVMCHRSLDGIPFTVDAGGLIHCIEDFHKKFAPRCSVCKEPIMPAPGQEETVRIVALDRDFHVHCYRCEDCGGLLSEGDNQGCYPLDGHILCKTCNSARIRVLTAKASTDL
Protocol: as §1, §2

P22626 = assay type: cell-based, human; conditions: 25 μM 2 h, live DM93 cells
Protocol: as §1, §2

[1] = target: T5, Q8N8N7 (prostaglandin reductase 2, PTGR2) (Homo sapiens, UniProt Q8N8N7); assay type: cell-based
T5 construct: endogenous in cells; host or cells: DM93 cells (SILAC), live-cell treatment
T5 sequence (Q8N8N7 whole entry): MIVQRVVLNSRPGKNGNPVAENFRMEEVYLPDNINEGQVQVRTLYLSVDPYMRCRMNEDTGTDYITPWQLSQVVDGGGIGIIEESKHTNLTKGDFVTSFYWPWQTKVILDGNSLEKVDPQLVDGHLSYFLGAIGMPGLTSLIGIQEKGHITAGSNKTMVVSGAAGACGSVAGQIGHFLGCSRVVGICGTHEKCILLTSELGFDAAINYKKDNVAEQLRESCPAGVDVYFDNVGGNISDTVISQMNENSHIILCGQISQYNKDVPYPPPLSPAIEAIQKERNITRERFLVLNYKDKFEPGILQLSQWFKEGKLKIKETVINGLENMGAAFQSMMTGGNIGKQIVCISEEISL
Protocol: as §1, §2
Confirmatory studies were also performed on prostaglandin reductase 2 (PTGR2) because of its role in the reduction of the bioactive lipid, 15-keto-PGE2^[17]. […] The chemical proteomic studies also identified additional tyrosine sites (e.g. Y265) competed by HHS-0701 albeit to a lesser degree (SR<5) compared with Y100. […]

[2] = target: T6, P16930 (fumarylacetoacetase, FAH) (Homo sapiens, UniProt P16930); assay type: cell-based
T6 construct: endogenous in cells; host or cells: DM93 (SILAC)
T6 sequence (P16930 whole entry): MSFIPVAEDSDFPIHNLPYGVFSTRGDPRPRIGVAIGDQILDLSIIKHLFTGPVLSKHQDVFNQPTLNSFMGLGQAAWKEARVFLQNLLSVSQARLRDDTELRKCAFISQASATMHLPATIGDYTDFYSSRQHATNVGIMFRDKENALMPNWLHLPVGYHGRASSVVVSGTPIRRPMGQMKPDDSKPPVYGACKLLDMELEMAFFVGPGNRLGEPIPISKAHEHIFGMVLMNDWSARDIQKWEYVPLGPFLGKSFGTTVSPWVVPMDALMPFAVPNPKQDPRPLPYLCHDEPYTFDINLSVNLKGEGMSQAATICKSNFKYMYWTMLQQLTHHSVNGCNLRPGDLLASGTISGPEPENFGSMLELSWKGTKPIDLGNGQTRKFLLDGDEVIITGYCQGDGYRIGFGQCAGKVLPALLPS
Protocol: Cells were grown to 90-95% confluence before being washed once with warm, sterile DPBS (1×, 5 mL), followed by addition of 10 mL of serum-free media (supplemented with 1% L-glutamine) containing either DMSO or SuTEx fragment (in DMSO) was added. Light cells were treated with DMSO vehicle while the heavy cells were treated with DMSO or SuTEx fragment (in DMSO) and incubated for 2 hrs. After 2 hrs, the cells were treated with SuTEx alkyne probe (HHS475, 10 μL of 1000× DMSO stock) and incubated for an additional 2 hrs. The media was aspirated and cells washed with cold PBS (5 mL) and harvested. Cells were spun at 500×g for 5 min at 4° C. followed by removal of supernatant. […]
Coupling cell-based screens with chemical proteomics can facilitate the identification of target protein and binding sites that engage and are irreversibly modified by covalent ligands^[12]. In these assays, covalent ligands block SuTEx activity-based probe (ABP) labeling at protein sites, and the competition of probe labeling can be used to quantify potency and selectivity across the proteome^[10a]. To facilitate quantitative chemical proteomics, DM93 melanoma cells were cultured using stable isotopic labeling by amino acids in cell culture (SILAC)^[13]. […] Probe-modified peptides were resolved, identified, and quantified by high-resolution liquid chromatography-tandem mass spectrometry (LC-MS/MS). […]

Q9Y520 = target: T7, Q9Y520 (Homo sapiens, UniProt Q9Y520); assay type: cell-based; conditions: 25 μM 2 h, live DM93 cells
T7 construct: endogenous in cells; host or cells: DM93 cells (SILAC)
Protocol: as §1, §2

T1 sequence (Q96AE4 whole entry): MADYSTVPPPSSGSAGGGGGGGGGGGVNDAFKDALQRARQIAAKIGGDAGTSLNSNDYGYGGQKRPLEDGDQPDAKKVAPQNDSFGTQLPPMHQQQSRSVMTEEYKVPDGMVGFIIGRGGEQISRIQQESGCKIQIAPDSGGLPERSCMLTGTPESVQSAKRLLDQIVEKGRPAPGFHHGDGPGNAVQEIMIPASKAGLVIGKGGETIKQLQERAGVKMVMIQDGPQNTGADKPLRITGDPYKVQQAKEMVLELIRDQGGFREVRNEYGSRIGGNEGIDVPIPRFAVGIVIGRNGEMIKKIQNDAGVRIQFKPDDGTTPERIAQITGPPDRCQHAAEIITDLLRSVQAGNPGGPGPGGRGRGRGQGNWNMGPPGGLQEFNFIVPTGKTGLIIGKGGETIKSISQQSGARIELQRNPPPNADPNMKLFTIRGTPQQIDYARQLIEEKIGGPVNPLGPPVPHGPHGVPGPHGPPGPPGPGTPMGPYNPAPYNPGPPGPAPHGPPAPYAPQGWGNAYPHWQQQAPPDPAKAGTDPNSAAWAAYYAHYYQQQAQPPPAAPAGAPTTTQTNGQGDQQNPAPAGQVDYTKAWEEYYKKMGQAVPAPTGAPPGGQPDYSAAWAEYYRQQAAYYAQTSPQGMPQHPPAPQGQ

O=C(NC1CC1)c1ccc(S(=O)(=O)n2cncn2)cc1 [HHS-0101, 4-((1H-1,2,4-triazol-1-yl)sulfonyl)-N-cyclopropylbenzamide]
liganded tyrosine site 438 (Q96AE4): HHS0101.Y (tyrosine sites that showed >80% reductions (SR >5) in probe labeling in cells treated with compounds (liganded sites))
liganded tyrosine site 473 (P11216): HHS0101.Y (tyrosine sites that showed >80% reductions (SR >5) in probe labeling in cells treated with compounds (liganded sites))
liganded tyrosine site 928 (O75150): HHS0101.Y (tyrosine sites that showed >80% reductions (SR >5) in probe labeling in cells treated with compounds (liganded sites))
liganded tyrosine site 251 (Q93052): HHS0101.Y|HHS0401.Y (tyrosine sites that showed >80% reductions (SR >5) in probe labeling in cells treated with compounds (liganded sites))
liganded tyrosine site 332 (Q93052): HHS0101.Y (tyrosine sites that showed >80% reductions (SR >5) in probe labeling in cells treated with compounds (liganded sites))
liganded tyrosine site 262 (P22626): HHS0101.Y (tyrosine sites that showed >80% reductions (SR >5) in probe labeling in cells treated with compounds (liganded sites))
SILAC ratio (SR), PTGR2 Y100 ([1]; 25 μM 2 h, live DM93 cells): 1.4
liganded tyrosine site 244 ([2]; 25 μM 2 h, live DM93 cells): HHS0101.Y|HHS0201.Y|HHS0301.Y|HHS0401.Y|HHS0701.Y (tyrosine sites that showed >80% reductions (SR >5) in probe labeling in cells treated with compounds (liganded sites))

O=C(NCC1CC1)c1ccc(S(=O)(=O)n2cncn2)cc1 [HHS-0201, 4-((1H-1,2,4-triazol-1-yl)sulfonyl)-N-(cyclopropylmethyl)benzamide]
liganded tyrosine site 204 (P11216): HHS0201.Y (tyrosine sites that showed >80% reductions (SR >5) in probe labeling in cells treated with compounds (liganded sites))
liganded tyrosine site 26 (Q9Y520): HHS0201.Y (tyrosine sites that showed >80% reductions (SR >5) in probe labeling in cells treated with compounds (liganded sites))
liganded tyrosine site 244 (P22626): HHS0201.Y (tyrosine sites that showed >80% reductions (SR >5) in probe labeling in cells treated with compounds (liganded sites))
liganded tyrosine site 247 (P22626): HHS0201.Y (tyrosine sites that showed >80% reductions (SR >5) in probe labeling in cells treated with compounds (liganded sites))
liganded tyrosine site 283 (P22626): HHS0201.Y (tyrosine sites that showed >80% reductions (SR >5) in probe labeling in cells treated with compounds (liganded sites))

O=C(NCc1ccccc1)c1ccc(S(=O)(=O)n2cncn2)cc1 [HHS-0401, 4-((1H-1,2,4-triazol-1-yl)sulfonyl)-N-benzylbenzamide]
liganded tyrosine site 2707 (Q9Y520): HHS0401.Y (tyrosine sites that showed >80% reductions (SR >5) in probe labeling in cells treated with compounds (liganded sites))
liganded tyrosine site 265 ([1]; 25 μM 2 h, live DM93 cells): HHS0401.Y (tyrosine sites that showed >80% reductions (SR >5) in probe labeling in cells treated with compounds (liganded sites))
FAH Y244 site liganded ([2]; live DM93 cells treated with ligand): > 90%

O=C(c1ccc(S(=O)(=O)n2cncn2)cc1)N1CCC(c2ccccc2)CC1 [HHS-0701, (4-((1H-1,2,4-triazol-1-yl)sulfonyl)phenyl)(4-phenylpiperidin-1-yl)methanone]
liganded tyrosine site 619 (Q96AE4): HHS0701.Y (tyrosine sites that showed >80% reductions (SR >5) in probe labeling in cells treated with compounds (liganded sites))
SILAC ratio (SR), PTGR2 Y100 ([1]; 25 μM 2 h, live DM93 cells): 11
SILAC ratio (SR), PTGR2 Y265 ([1]; 25 μM 2 h, live DM93 cells): < 5
liganded tyrosine site 100 ([1]; 25 μM 2 h, live DM93 cells): HHS0701.Y (tyrosine sites that showed >80% reductions (SR >5) in probe labeling in cells treated with compounds (liganded sites))
PTGR2 Y100 liganded ([1]; ligand-treated DM93 cells): ~90%

O=C(NC1CCCCC1)c1ccc(S(=O)(=O)n2cncn2)cc1 [HHS-0301, 4-((1H-1,2,4-triazol-1-yl)sulfonyl)-N-cyclohexylbenzamide]
liganded tyrosine site 258 (O75150): HHS0301.Y (tyrosine sites that showed >80% reductions (SR >5) in probe labeling in cells treated with compounds (liganded sites))
liganded tyrosine site 234 (Q93052): HHS0301.Y|HHS0401.Y (tyrosine sites that showed >80% reductions (SR >5) in probe labeling in cells treated with compounds (liganded sites))
